Where two headings read alike, the source gives them in different places.
Tests used:
[1] = biological target: T1, maytansine site of tubulin (Bos taurus, UniProt Q6B856); experiment: biochemical; type: binding, calf
T1 construct: Purified calf brain tubulin and chemicals were obtained as previously described; from tissue; host or cells: calf brain

A2780AD cells = experiment: Cytotoxicity (antiproliferation assay) in A2780AD (pGp overexpressing); type: cell-based, human; settings: for IC50: read-out: IC50 A2780AD; for R/S (resistance index): A2780AD versus A2780
A549 cells [2] = experiment: Effects on cellular microtubules by immunofluorescence microscopy; type: cell-based, human; settings: fluorescence microscopy; for concentration at which the microtubule destabilizing effect is observed in interphasic cells: interphase; for concentration at which the microtubule destabilizing effect is observed in mitotic cells: mitosis
From the text: To do so, we performed fluorescence microscopy using A549 cells.
The effect of these compounds on the microtubule network and mitotic spindle was characterized in A549 tumor cells by fluorescence microscopy. […] Cells were immunostained for A)–I) α‐tubulin or A’)–I’) DNA, and A’’)–I’’) the images obtained were merged (tubulin in green and DNA in magenta). A)–A’’) Interphase cell treated with DMSO; notice the regular microtubule network evenly distributed in the cytoplasm. B)–B’’) Control metaphase cell with a normally distributed bipolar mitotic spindle in which all chromosomes are positioned in the metaphase plate. […] All images are shown at the same scale; scale bar: 10 μm.
In interphase the microtubule network covers the whole cytoplasm, while in dividing cells during metaphase there are regular bipolar spindles that allow the correct positioning and segregation of chromosomes in the subsequent division steps.
Indirect immunofluorescence images were obtained using A549 cells plated at a density of 130,000 cells/ml onto 12mm

A549 cells [3] = experiment: Cytotoxicity (antiproliferation assay) in A549; type: cell-based, human
A2780 cells = experiment: Cytotoxicity (antiproliferation assay) in A2780; type: cell-based, human
tubulin [4] = biological target: T2, tubulin (Bos taurus, UniProt Q6B856); experiment: Inhibition of tubulin assembly (turbidity time courses); type: biochemical, calf; settings: 25 μM tubulin in GAB, 27.5 μM compound, stoichiometric ratio
T2 construct: Purified calf brain tubulin and chemicals were obtained as previously described; from tissue; host or cells: calf brain
T2 sequence (Q6B856 whole entry): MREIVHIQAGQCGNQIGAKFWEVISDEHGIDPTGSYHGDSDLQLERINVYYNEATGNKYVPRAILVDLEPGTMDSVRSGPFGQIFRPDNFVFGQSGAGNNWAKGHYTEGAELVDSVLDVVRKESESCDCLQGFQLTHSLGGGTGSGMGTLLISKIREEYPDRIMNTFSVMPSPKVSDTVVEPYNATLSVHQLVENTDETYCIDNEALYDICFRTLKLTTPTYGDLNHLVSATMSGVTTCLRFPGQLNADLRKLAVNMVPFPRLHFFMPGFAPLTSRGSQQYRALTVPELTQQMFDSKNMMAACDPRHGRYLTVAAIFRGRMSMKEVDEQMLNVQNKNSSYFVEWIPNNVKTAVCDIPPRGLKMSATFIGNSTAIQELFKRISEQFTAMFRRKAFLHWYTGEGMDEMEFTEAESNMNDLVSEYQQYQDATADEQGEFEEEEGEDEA
T2 sequence (P81947 whole entry partner): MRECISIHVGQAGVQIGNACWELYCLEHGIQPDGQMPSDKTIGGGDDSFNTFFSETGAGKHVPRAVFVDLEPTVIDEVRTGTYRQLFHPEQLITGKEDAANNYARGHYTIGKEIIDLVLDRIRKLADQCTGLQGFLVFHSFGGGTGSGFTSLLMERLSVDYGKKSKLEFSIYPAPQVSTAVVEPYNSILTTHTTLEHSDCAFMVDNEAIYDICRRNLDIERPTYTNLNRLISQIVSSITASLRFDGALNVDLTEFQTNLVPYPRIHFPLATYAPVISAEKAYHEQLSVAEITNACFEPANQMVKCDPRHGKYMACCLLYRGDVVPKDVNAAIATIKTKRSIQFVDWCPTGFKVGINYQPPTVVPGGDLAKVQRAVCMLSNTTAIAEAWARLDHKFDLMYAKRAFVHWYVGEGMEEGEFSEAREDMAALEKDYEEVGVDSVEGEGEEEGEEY

tubulin [5] = test system: tubulin; parameters: method as in PMID 21043240; settings: compared with maytansine; cited from earlier work
[6] = competition against Fc maytansine
[7] = competition against Fc maytansine, read-out: K d
[8] = A2780AD cell line, pGp overexpressing
[9] = A549 cell line, read-out: IC50 A549
[10] = A2780 cell line, read-out: IC50 A2780
[11] = Homo sapiens, A549, read-out: IC50 A549
[12] = Homo sapiens, A2780, read-out: IC50 A2780
[13] = Homo sapiens, A2780AD cell line, pGp overexpressing
[14] = Homo sapiens, A549 cell line, read-out: IC50 A549
[15] = Homo sapiens, A2780 cell line, read-out: IC50 A2780

T1 sequence (Q6B856 whole entry): as the sequence (Q6B856 whole entry) above
T1 sequence (P81947 whole entry partner): as the sequence (P81947 whole entry partner) above

SMILES	Mean K b [1, 6]	Kd [1, 7] [nM]	IC50 (A2780AD cells; [8]) [nM]	R/S (resistance index) (A2780AD cells)	concentration at which the microtubule destabilizing effect is observed in interphasic cells (A549 cells [2]) [nM]	concentration at which the microtubule destabilizing effect is observed in mitotic cells (A549 cells [2]) [nM]	IC50 (A549 cells [3]; [9]) [nM]	IC50 (A2780 cells; [10]) [nM]	Inhibition of tubulin assembly (tubulin [4])	IC50 (A2780AD cells; Homo sapiens, A2780AD) [nM]	IC50 (A549 cells [3]; [11]) [nM]	IC50 (A2780 cells; [12]) [nM]	Kd [1] [nM]	IC50 (A2780AD cells; [13]) [nM]	IC50 (A549 cells [3]; [14]) [nM]	IC50 (A2780 cells; [15]) [nM]	inhibitory activity on tubulin polymerization (tubulin [5])
COc1cc2cc(c1Cl)N(C)C(=O)C[C@H](OC(=O)c1ccccc1)[C@]1(C)O[C@H]1[C@H](C)[C@@H]1C[C@@](O)(NC(=O)O1)[C@H](OC)/C=C/C=C(\C)C2 [4 a]	2.0±0.×10^7 M^−1	51 ± 3	11 ± 1	100	10	5	0.24 ± 0.03	0.11 ± 0.01	–	–	–	–	–	–	–	–	–
COc1cc2cc(c1Cl)N(C)C(=O)CC(OC(=O)c1ccccc1)C1(C)OC1C(C)C1C=C(NC(=O)O1)C(OC)C=CC=C(C)C2 (centres unmarked) [5 a]	9.2±0.3×10^5 M^−1	1090 ± 40	2630 ± 187	–	–	–	> 570	338 ± 4.65	strong inhibitors that completely abolished microtubule assembly	–	–	–	–	–	–	–	–
COc1cc2cc(c1Cl)N(C)C(=O)CC(O)C1(C)OC1C(C)C1C=C(NC(=O)O1)C(OC)C=CC=C(C)C2 (centres unmarked) [Compound 3]	1.20±0.03×10^6 M^−1	830 ± 20	–	–	–	–	–	–	mild	> 19700	28 ± 2	74 ± 4	–	–	–	–	–
C#CCCCCC(=O)OC1CC(=O)N(C)c2cc(cc(OC)c2Cl)CC(C)=CC=CC(OC)C2=CC(OC(=O)N2)C(C)C2OC12C (centres unmarked) [5 c]	5.6±0.4×10^5 M^−1	1800 ± 120	> 7960	–	–	–	320 ± 40	225 ± 15	mild	–	–	–	–	–	–	–	–
COc1cc2cc(c1Cl)N(C)C(=O)CC(O)C1(C)OC1C(C)C1CC(O)(NC(=O)O1)C(OC)/C=C/C=C(\C)C2 (centres unmarked) [1 b, Maytansinol]	1.30±0.06×10^6 M^−1	–	–	–	100	50	–	–	noticeable effect at stoichiometric concentrations	–	–	–	780 ± 40	1460 ± 148	60 ± 3	23.8 ± 1.65	weaker inhibitory activity on tubulin polymerization than maytansine
COc1cc2cc(c1Cl)N(C)C(=O)CC(O)C1(C)OC1C(C)C1C=C(C(OC)C=CC=C(C)C2)N(C(=O)c2ccccc2)C(=O)O1 (centres unmarked) [6 a]	6±2×10^5 M^−1	–	13500 ± 623	–	–	–	> 1030	2090 ± 99	strong inhibitors that completely abolished microtubule assembly	–	–	–	–	–	–	–	–
C#CCCCCC(=O)OC1CC(=O)N(C)c2cc(cc(OC)c2Cl)CC(C)=CC=CC(OC)C2(O)CC(OC(=O)N2)C(C)C2OC12C (centres unmarked) [4 c]	5.4±0.5×10^7 M^−1	20 ± 2	4.7 ± 0.6	142	–	–	0.07 ± 0.008	0.033 ± 0.003	–	–	–	–	–	–	–	–	–
COc1cc2cc(c1Cl)N(C)C(=O)CC(OC(C)=O)C1(C)OC1C(C)C1CC(O)(NC(=O)O1)C(OC)C=CC=C(C)C2 (centres unmarked) [4 b]	9±1×10^7 M^−1	11 ± 1	20 ± 1	80	–	–	1.2 ± 0.3	0.25 ± 0.01	–	–	–	–	–	–	–	–	–
COc1cc2cc(c1Cl)N(C)C(=O)CC(O)C1(C)OC1C(C)C=CC(=O)C(OC)C=CC=C(C)C2 (centres unmarked) [Compound 2]	1.42±0.08×10^6 M^−1	720 ± 50	–	–	–	–	–	–	weak inhibition	981 ± 201	15 ± 2	9.64 ± 0.97	–	–	–	–	–
COc1cc2cc(c1Cl)N(C)C(=O)C[C@H](OC(=O)[C@H](C)N(C)C(C)=O)[C@]1(C)O[C@H]1[C@H](C)[C@@H]1C[C@@](O)(NC(=O)O1)[C@H](OC)/C=C/C=C(\C)C2 [1 a, Maytansine, reference compound]	9.0±1.3×10^7 M^−1	–	–	–	5	5	–	–	completely abolishes tubulin polymerization	–	–	–	14 ± 2	19.5 ± 1.14	0.278 ± 0.04	0.31 ± 0.02	–
COc1cc2cc(c1Cl)N(C)C(=O)CC(OC(=O)c1ccccc1)C1(C)OC1C(C)C1C=C(C(OC)C=CC=C(C)C2)N(C(=O)c2ccccc2)C(=O)O1 (centres unmarked) [7 a]	5.0±0.5×10^5 M^−1	2000 ± 200	3500 ± 320	–	–	–	47 ± 6	–	mild	–	–	–	–	–	–	–	–
COc1cc2cc(c1Cl)N(C)C(=O)CC(OC(C)=O)C1(C)OC1C(C)C1C=C(NC(=O)O1)C(OC)C=CC=C(C)C2 (centres unmarked) [5 b]	1.17±0.04×10^6 M^−1	860 ± 30	> 6160	–	–	–	190 ± 40	130 ± 20	strong inhibitors that completely abolished microtubule assembly	–	–	–	–	–	–	–	–
